US11066406B2, “Small molecule inhibitors of the JAK family of kinases” (Janssen Pharmaceutica NV, priority 2018, dated 2021)
Several values for one entry are separate records, joined by “and”; a condition that tells them apart may be missing. Equal entries are not always repeated. Marks after values point to notes of the source that are not given here.

Experiments:
[1] = In vivo p.o. dosing (Protocols 1 and 2): plasma and colon concentrations; parameters: species or system C57BL/6 mice; conditions: mice, 25 mg/kg p.o. in 20% HPβCD; for Plasma Concentration After p.o. Dosing, Time = 0.5 h, Mean: 0.5 h post dose; for Plasma Concentration After p.o. Dosing, Time = 2 h, Mean: 2 h post dose; for Plasma Concentration After p.o. Dosing, Time = 4 h, Mean: 4 h post dose; for Colon Concentration After p.o. Dosing, Time = 4 h, Mean: colon 4 h post dose
Procedure: These protocols are described below under the heading In vivo Studies.
(§1) Three non-fasted female C57BL/6 mice were orally administered test compound at a dose of 25 mg/kg p.o. as a solution in 20% hydroxypropyl-beta-cyclodextrin (HPβCD) at a dose volume of 5 mL/kg. Blood samples were collected at 0.5, 2, and 4 h post dose via retro-orbital bleed or venipuncture of the dorsal metatarsal vein. Blood samples were collected into tubes containing anticoagulant (Heparin-Na) and placed on wet ice. The plasma fraction was separated by centrifugation and frozen at −20° C. for up to 4 h and −80° C. after 4 h unless analyzed shortly after sample collection. Colon samples were collected at 4 h post dose. From the beginning of the cecum, a 4-6 cm sample of the colon was dissected, cut open on the longitudinal axis, and the solid contents removed by flushing with 2 mL of saline. The colon was further washed by putting it in 5 mL of saline and shaken for 5 seconds. The colon sample was then patted dry, weighed, and homogenized as 1 part tissue (g) to 4 parts HPLC grade water (mL). Concentrations of the compound in plasma and colon homogenate were determined using a qualified liquid chromatography-triple quadrupole mass spectrometry (LC-MS/MS) method.
as §1, with “HPβCD” for “hydroxypropyl-beta-cyclodextrin (HPβCD)”, “or” for “or venipuncture of the”, “2 cm below” for “the beginning of”, “4” for “4-6”

[2] = In vivo intracolonic (i.c.) dosing (Protocol 3): plasma and colon concentrations; parameters: species or system C57BL/6 mice; conditions: mice, 5 mg/kg intracolonic in 20% HPβCD; for Plasma Concentration After i.c. Dosing, Time = 2 h, Mean: 2 h post dose; for Plasma Concentration After i.c. Dosing, Time = 4 h, Mean: 4 h post dose
Description: Plasma and colon concentration results were obtained by following Protocol 1 using venipuncture of dorsal metatarsal vein bleed for Compounds (B), (C), and Examples 6 and 11. Plasma and colon concentration results were obtained by following Protocol 2 using retro-orbital bleed for Compounds (A), and Examples 1, and 3-5 and Protocol 2 using venipuncture of the dorsal metatarsal vein for Examples 2, 7-10, and 12. Plasma and colon concentration results were obtained by following Protocol 3 for Examples 1, 3 and 4. These protocols are described below under the heading In vivo Studies.
Intracolonic (IC) dose group: Following anesthesia with isoflurane by inhalation, three non-fasted female C57BL/6 mice were administered the compound intracolonically through a small incision in the abdominal wall using a syringe and needle at a dose of 5 mg/kg as a solution in 20% HPβCD at a dose volume of 1 mL/kg. Blood samples were collected at 0.5, 2, and 4 h post dose via retro-orbital bleed. Blood samples were collected into tubes containing anticoagulant (Heparin-Na) and placed on wet ice. The plasma fraction was separated by centrifugation and frozen at −20° C. for up to 4 h and −80° C. after 4 h unless analyzed shortly after sample collection. Colon samples were collected at 4 h post dose. From 2 cm below the cecum, a 4-cm sample of the colon was dissected, cut open on the longitudinal axis, and the solid contents removed by flushing with 2 mL of saline. The colon was further washed by putting it in 5 mL of saline and shaken for 5 seconds. The colon sample was then patted dry, weighed, and homogenized as 1 part tissue (g) to 4 parts HPLC grade water (mL). Concentrations of the compound in plasma and colon homogenate were determined using a qualified liquid chromatography-triple quadrupole mass spectrometry (LC-MS/MS) method. This protocol was used to evaluate IC dosing of the following test compounds: Examples 1, 3, and 4.

MDCK-MDR1 cell line = assay: MDCK-MDR1 permeability assay; format: in vitro ADME; conditions: apical-to-basolateral, with P-gp inhibitor elacridar (2 μM), 60 min
Procedure: Permeability measurements were conducted according to the Cyprotex protocol using the MDCK-MDR1 cell line obtained from the NIH (Rockville, Md., USA). […] The cells in this assay form a cohesive sheet of a single cell layer filing the surface area of the culture dish, also known as a confluent monolayer, and on day four the test compound was added to the apical side of the membrane and the transport of the compound across the monolayer was monitored over a time period of 60 min.
Test compounds were dissolved in DMSO at a concentration of 10 mM. The dosing solutions were prepared by diluting test compound with assay buffer (Hanks Balanced Salt Solution), pH 7.4, at a final concentration of 5 μM. For assessment of apical to basolateral (“A-B”) permeability, buffer was removed from the apical compartment and replaced with test compound dosing solution with or without the permeability glycoprotein (“PgP”, “P-gP”, “Pgp” or “P-gp”) inhibitor elacridar (2 μM). For assessment of basolateral to apical (“B-A”) permeability, buffer was removed from the companion plate and replaced with test compound dosing solution. Incubations were carried out in duplicate at 37° C. in an atmosphere of 5% CO2 with a relative humidity of 95%. Each assay included the reference markers propranolol (high permeability) and prazosin (PgP substrate). After incubation for 60 minutes, apical and basolateral samples were diluted and test compounds quantified by LC/MS/MS using an 8-point calibration in the range 0.0039 to 3 μM with appropriate dilution of the samples (receiver dilution factor=1; donor and Co dilution factor=10). The permeability coefficient (Papp) for each compound was calculated from the following equation: Papp=(dQ/dt)/(C0×S), where dQ/dt is the rate of permeation of the drug across the cells, Co is the donor compartment concentration at time zero, and S is the area of the cell monolayer.
Papp(A-B) gives an indication of permeation extent across the cells in this assay, which is envisaged to model the transcellular transport across Pgp-expressing cells, such as Pgp-expressing gastrointestinal tract cells.

Plasma Concentration After p.o. Dosing, Time = 4 h, Mean [1]	MDCK-MDR1 P^eapp(A-B) @ 5 μM (MDCK-MDR1 cell line)	Structure (SMILES)	also measured
84.5 ng/mL		Cc1nc2cnc3[nH]ccc3c2n1[C@H]1CC[C@H](CC#N)CC1 [A]	Plasma Concentration After p.o. Dosing, Time = 0.5 h, Mean [1]: 347.0 ng/mL; Plasma Concentration After p.o. Dosing, Time = 2 h, Mean [1]: 69.1 ng/mL; Colon Concentration After p.o. Dosing, Time = 4 h, Mean [1]: 895.0 ng/g
11.3 ng/mL		N#CC[C@H]1CC[C@H](n2c(CO)nc3cnc4[nH]ccc4c32)CC1 [B]	Plasma Concentration After p.o. Dosing, Time = 0.5 h, Mean [1]: 352.7 ng/mL; Plasma Concentration After p.o. Dosing, Time = 2 h, Mean [1]: 66.3 ng/mL; Colon Concentration After p.o. Dosing, Time = 4 h, Mean [1]: 6076.7 ng/g
16.7 ng/mL		C[C@@H](O)c1nc2cnc3[nH]ccc3c2n1[C@H]1CC[C@H](CC#N)CC1 [C]	Plasma Concentration After p.o. Dosing, Time = 0.5 h, Mean [1]: 547.0 ng/mL; Plasma Concentration After p.o. Dosing, Time = 2 h, Mean [1]: 130.2 ng/mL; Colon Concentration After p.o. Dosing, Time = 4 h, Mean [1]: 7776.7 ng/g
		CC(C)(O)CNC(=O)Cc1nc2cnc3[nH]ccc3c2n1[C@H]1CC[C@H](CC#N)CC1 [Ex. 1, 2-(1-((1r,4r)-4-(Cyanomethyl)cyclohexyl)-1,6-dihydroimidazo[4,5-d]pyrrolo[2,3-b]pyridin-2-yl)-N-(2-hydroxy-2-methylpropyl)acetamide]	Plasma Concentration After i.c. Dosing, Time = 2 h, Mean [2]: ^∧; Plasma Concentration After i.c. Dosing, Time = 4 h, Mean [2]: ^∧
	1.6 10^−6 cm/sec	N#CCC1CCC(n2c(-c3c[nH]cn3)nc3cnc4[nH]ccc4c32)CC1 (stereo not shown) [Ex. 2, 2-((1r,4r)-4-(2-(1H-Imidazol-4-yl)imidazo[4,5-d]pyrrolo[2,3-b]pyridin-1(6H)-yl)cyclohexyl)acetonitrile]	
	2.3 10^−6 cm/sec and 1.6 10^−6 cm/sec	N#CC[C@H]1CC[C@H](n2c(CC(=O)NCC3CC3)nc3cnc4[nH]ccc4c32)CC1 [Ex. 3, 2-(1-((1r,4r)-4-(Cyanomethyl)cyclohexyl)-1,6-dihydroimidazo[4,5-d]pyrrolo[2,3-b]pyridin-2-yl)-N-(cyclopropylmethyl)acetamide]	Plasma Concentration After i.c. Dosing, Time = 2 h, Mean [2]: ^∧; Plasma Concentration After i.c. Dosing, Time = 4 h, Mean [2]: ^∧
	0.5 10^−6 cm/sec	N#CCCNC(=O)Cc1nc2cnc3[nH]ccc3c2n1[C@H]1CC[C@H](CC#N)CC1 [Ex. 4, N-(2-Cyanoethyl)-2-(1-((1r,4r)-4-(cyanomethyl)cyclohexyl)-1,6-dihydroimidazo[4,5-d]pyrrolo[2,3-b]pyridin-2-yl)acetamide]	Plasma Concentration After i.c. Dosing, Time = 4 h, Mean [2]: ^∧
	0.7 10^−6 cm/sec and 0.5 10^−6 cm/sec	N#CC[C@H]1CC[C@H](n2c(CC(=O)NC3CCOCC3)nc3cnc4[nH]ccc4c32)CC1 [Ex. 5, 2-(1-((1r,4r)-4-(cyanomethyl)cyclohexyl)-1,6-dihydroimidazo[4,5-d]pyrrolo[2,3-b]pyridin-2-yl)-N-(tetrahydro-2H-pyran-4-yl)acetamide]	
1.7^# ng/mL	0.9 10^−6 cm/sec and 1.1 10^−6 cm/sec	N#CC[C@H]1CC[C@H](n2c(CC(=O)NCC3CCOCC3)nc3cnc4[nH]ccc4c32)CC1 [Ex. 6, 2-(1-((1r,4r)-4-(Cyanomethyl)cyclohexyl)-1,6-dihydroimidazo[4,5-d]pyrrolo[2,3-b]pyridin-2-yl)-N-((tetrahydro-2H-pyran-4-yl)methyl)acetamide]	
	1.2 10^−6 cm/sec	CC(C)(C#N)CNC(=O)Cc1nc2cnc3[nH]ccc3c2n1[C@H]1CC[C@H](CC#N)CC1 [Ex. 7, N-(2-Cyano-2-methylpropyl)-2-(1-((1r,4r)-4-(cyanomethyl)cyclohexyl)-1,6-dihydroimidazo[4,5-d]pyrrolo[2,3-b]pyridin-2-yl)acetamide]	
	0.5 10^−6 cm/sec	N#CC[C@H]1CC[C@H](n2c(CC(=O)NCC3(O)CCC3)nc3cnc4[nH]ccc4c32)CC1 [Ex. 8, 2-(1-((1r,4r)-4-(Cyanomethyl)cyclohexyl)-1,6-dihydroimidazo[4,5-d]pyrrolo[2,3-b]pyridin-2-yl)-N-((1-hydroxycyclobutyl)methyl)acetamide]	
	0.6 10^−6 cm/sec	Cn1cc(NC(=O)Cc2nc3cnc4[nH]ccc4c3n2[C@H]2CC[C@H](CC#N)CC2)cn1 [Ex. 9, 2-(1-((1r,4r)-4-(Cyanomethyl)cyclohexyl)-1,6-dihydroimidazo[4,5-d]pyrrolo[2,3-b]pyridin-2-yl)-N-(1-methyl-1H-pyrazol-4-yl)acetamide]	
	1.1 10^−6 cm/sec	N#CCC12CCC(NC(=O)Cc3nc4cnc5[nH]ccc5c4n3[C@H]3CC[C@H](CC#N)CC3)(CC1)C2 [Ex. 10, N-(4-(Cyanomethyl)bicyclo[2.2.1]heptan-1-yl)-2-(1-((1r,4r)-4-(cyanomethyl)cyclohexyl)-1,6-dihydroimidazo[4,5-d]pyrrolo[2,3-b]pyridin-2-yl)acetamide]	
^∧	0.8 10^−6 cm/sec	N#CC[C@H]1CC[C@H](n2c(CC(=O)Nc3cc[nH]n3)nc3cnc4[nH]ccc4c32)CC1 [Ex. 11, 2-(1-((1r,4r)-4-(Cyanomethyl)cyclohexyl)-1,6-dihydroimidazo[4,5-d]pyrrolo[2,3-b]pyridin-2-yl)-N-(1H-pyrazol-3-yl)acetamide]	Plasma Concentration After p.o. Dosing, Time = 2 h, Mean [1]: ^∧
	0.6 10^−6 cm/sec	N#CC[C@H]1CC[C@H](n2c(CC(=O)NCC3(O)CC3)nc3cnc4[nH]ccc4c32)CC1 [Ex. 12, 2-(1-((1r,4r)-4-(Cyanomethyl)cyclohexyl)-1,6-dihydroimidazo[4,5-d]pyrrolo[2,3-b]pyridin-2-yl)-N-((1-hydroxycyclopropyl)methyl)acetamide]	
